Where two headings read alike, the source gives them in different places. No end group written: not given here.
B1: Rop: small 63 amino acid four-helix bundle protein from the ColEl replicon, used as stabilizing group (protein, UniProt P03051 1-63, looked up)
Regulatory protein rop: MTKQEKTALNMARFIRSQTLTLLEKLNELDADEQADICESLHDHADELYRSCLARFGDDGENL
B2: pPep13-anti: pPep13 insert recloned in pLAC11 with ATG start codon changed to ACG (SEQ ID NO:32) (nucleic acid)
DNA: TACTATAGATCTACGGACCGTGAAGTGATGTGTGCGGCAAAACAGGAATGGAAGGAACGAACGCCATAGGCCGCGTAATAAGAATTCTCGACA
modifications: expressed or natural sequence
B3: pPep19-anti: pPep19 insert recloned in pLAC11 with ATG start codon changed to ACG (SEQ ID NO:33) (nucleic acid)
DNA: TACTATAGATCTACGAGGGGCGCCAACTAAGGGGGGGGGAAGGTATTTGTCCCGTGCATAATCTCGGGTGTTGTCTAATAAGAATTCTCGACA
modifications: expressed or natural sequence
B4: pPep1-anti: pPep1 insert recloned in pLAC11 with ATG start codon changed to ACG (SEQ ID NO:29) (nucleic acid)
DNA: TACTATAGATCTACGGTCACTGAATTTTGTGGCTTGTTGGACCAACTGCCTTAGTAATAGTGGAAGGCTGAAATTAATAAGAATTCTCGACA
modifications: expressed or natural sequence
B5: pPep5-anti: pPep5 insert recloned in pLAC11 with ATG start codon changed to ACG (SEQ ID NO:30) (nucleic acid)
DNA: TACTATAGATCTACGTGGCGGGACTCATGGATTAAGGGTAGGGACGTGGGGTTTATGGGTTAAAATAGTTTGATAATAAGAATTCTCGACA
modifications: expressed or natural sequence
B6: pPep12-anti: pPep12 insert recloned in pLAC11 with ATG start codon changed to ACG (SEQ ID NO:31) (nucleic acid)
DNA: TACTATAGATCTACGAACGGCCGAACCAAACGAATCCGGGACCCACCAGCCGCCTAAACAGCTACCAGCTGTGGTAATAAGAATTCTCGACA
modifications: expressed or natural sequence

Experiments:
[1] = target: ATPase; details: read-out: Binding Constant; Inhibited Protein: ATPase; cited from earlier work
[2] = target: Calpain; details: Inhibited Protein: Calpain; read-out: Binding Constant; cited from earlier work
[3] = target: galanin receptor; experiment: Radio immunoassay, displacement of radiolabeled galanin from its receptor; format: binding
Method: Radio immunoassays (RIAs) were performed to determine the ability of galanin and its APP derivatives to displace radiolabeled galanin from its receptor.

[4] = tested on: E. coli; format: cell-based; details: ALS225 cells, minimal inducing plate (M9 glycerol Amp IPTG), grid patching
[5] = tested on: E. coli; experiment: Growth rate analysis in liquid media of cells expressing induced peptides; format: cell-based; details: for % Inhibition (of the growth rate): ALS225, minimal media, 1 mM IPTG, versus induced pLAC11 vector, average of three determinations; for % inhibition versus pLAC11 control (inhibitory peptide): induced inhibitor; for % inhibition versus pLAC11 control (inhibitory peptide) / % inhibition versus pLAC11 control (antisense construct): growth rate; for % inhibition versus pLAC11 control (antisense construct): ATG start codon converted to ACG, induced
[6] = target: Nicotinic Acetylcholine; details: read-out: Binding Constant; cited from earlier work
[7] = Steif et al. 1993; cited from earlier work

Molecule	Type (one day / two day inhibitor) [4]	% Inhibition (of the growth rate) [5] [%]	other results
Myotoxin (29-42)			Kd [1]: 19000 nM
SCP (153-180)			Kd [2]: 30 nM
galanin with the APP (Ala-Pro-Pro) motif at the amino terminus [APP-galanin]			Ki [3]: 6.42 nM
pPep5: 16 aa inhibitor peptide encoded by clone pPep5 (SEQ ID NO:36) (MWRDSWIKGRDVGFMG; stabilized peptide)	1 Day (able to prevent the growth of the E. coli bacteria at 24 hours)	24	% inhibition versus pLAC11 control (inhibitory peptide) [5]: 23%
pPep6: 42 aa inhibitor peptide (SEQ ID NO:39); last 25 aa could form a hydrophobic membrane-spanning domain (MSGGHVTRECKSAMSNRWIYVIRILMFDSLSSISFNAVVYHS; also: stabilized peptide)	1 Day (able to prevent the growth of the E. coli bacteria at 24 hours)	27	
pPep7: 6 aa inhibitor peptide (SEQ ID NO:40) (MYLFIG; stabilized peptide)	1 Day (able to prevent the growth of the E. coli bacteria at 24 hours)	26	
pPep8: 21 aa inhibitor peptide (SEQ ID NO:43) (MLLFGGDCGKAGYFTVLPSR; stabilized peptide)	1 Day (able to prevent the growth of the E. coli bacteria at 24 hours)	29	
pPep10: 20 aa inhibitor peptide (SEQ ID NO:45) (MIGGSLSFAWAIVCNKNSHV; stabilized peptide)	1 Day (able to prevent the growth of the E. coli bacteria at 24 hours)	24	
pPep12: 14 aa two day inhibitor peptide (SEQ ID NO:46), two prolines near the C-terminus; printed pPep22 in Table 10 (MNGRTKRIRDPPAA; stabilized peptide)	two day	82	Type (one day / two day inhibitor) ([4]; listed as pPep22): 2 Day (able to prevent the growth of the E. coli bacteria at 48 hours); % inhibition versus pLAC11 control (inhibitory peptide) [5]: 80%
pPep13: 18 aa inhibitor peptide (SEQ ID NO:48), C-terminal proline (MDREVMCAAKQEWKERTP; stabilized peptide)	1 Day (able to prevent the growth of the E. coli bacteria at 24 hours)	28	% inhibition versus pLAC11 control (inhibitory peptide) [5]: 28%
pPep17: 12 aa inhibitor peptide (SEQ ID NO:51), C-terminal proline (MLGLEATYPFNP; stabilized peptide)	1 Day (able to prevent the growth of the E. coli bacteria at 24 hours)	28	
pPep19: 5 aa inhibitor peptide (SEQ ID NO:52) (MRGAN; stabilized peptide)	1 Day (able to prevent the growth of the E. coli bacteria at 24 hours)	29	% inhibition versus pLAC11 control (inhibitory peptide) [5]: 29%
α-Conotoxin GIA			Kd [6]: 1 nM
B1			midpoint temperature of denaturation, Tm [7]: about 71 °C
B2			% inhibition versus pLAC11 control (antisense construct) [5]: 0%
B3			% inhibition versus pLAC11 control (antisense construct) [5]: 0%
B4			% inhibition versus pLAC11 control (antisense construct) [5]: 0%
B5			% inhibition versus pLAC11 control (antisense construct) [5]: 0%
B6			% inhibition versus pLAC11 control (antisense construct) [5]: 0%

From patent publication US7365162B2, “Stabilized bioactive peptides and methods of identification, synthesis, and use” (priority 1998, dated 2008)
